Tests used:
[1] = tested on: rats subjected to 60% blood loss; assay: Rat hemorrhagic shock, 60% blood loss (Example 3); format: in vivo
Protocol: Rats infused with ketone bodies were subjected to 60% blood loss for at least 1 hour, followed by return of the shed blood. Endpoint measures of neuroprotection were quantitative analysis of neuronal survival and apoptosis in cortex, hippocampus and cerebellum as well as neurologic function exam scores. The objective was to determine the effectiveness of the D-form of beta-hydroxybutyrate (D-BHB) in conjunction with melatonin in protecting the brain from ischemia and providing protection from reperfusion injury after blood return.
The goal of the following experiments was to maintain 60% blood loss for at least three hours using a minimal amount of fluid in order to maintain viability. Sixty-percent blood loss was calculated by using the equation: Total blood volume=Animal body weight×0.06. A bolus volume of 1 ml ischemia/reperfusion protection composition per kilogram of animal body weight was given to animals after approximately 40% blood loss. Some animals only received a single 1 ml/kg bolus, while other animals received a slow infusion (100 μl/hr) to imitate an intravenous drip of solution after the bolus was given. […]
Once rats were fully anesthesized and stabilized for a 20 min period, blood loss was begun. […] Temperature was monitored with a rectal probe. […] Animal death was recorded when blood pressure, respiration, and precordial movement ceased (see FIG. 9 for a timeline). […]

[2] = tested on: hibernating ground squirrels; settings: in vivo, ip

| Structure (SMILES) | survival compared with 4 M NaCl ([1]; 60% blood loss, same osmolarity, ambient temperature drift) | survival compared with NaCl, bolus followed by infusion ([1]; bolus then 100 μl/hr infusion, p-value <0.016) | transport into the heart during hibernation [2] |
| --- | --- | --- | --- |
| C[C@@H](O)CC(=O)O [D-BHB, D-beta-hydroxybutyrate] | survived longer | lived significantly longer | – |
| [13CH3][C@@H](O)[13CH2]C(=O)O [^13C-D-BHB, [2,4-^13C]D-beta-hydroxybutyrate] | – | – | efficiently transported into the heart |

From patent publication US9149450B2, “Ischemia/reperfusion protection compositions and methods of using” (priority 2007, dated 2015)
